Measured values taken from PMC10498667 (Chemical Science, 2023).
Several values for one entry are separate records, joined by “and”; a condition that tells them apart may be missing. Equal values may be shown once.

Tests used:
Aβ40 = biological target: T1, Aβ40 (Homo sapiens, UniProt P05067); experiment: Aβ40 aggregation inhibition experiments (gel/western blot, TEM); format: biochemical; conditions: flavonoid 50 μM, 24 h
T1 construct: Ab40 ([…]-; purchased Peptide Institute, Inc. (Osaka, Japan)
Description: To verify whether a series of nine flavonoids can modulate the aggregation of Aβ with and without metal ions, the molecular weight (MW) distribution and morphology of the resultant Aβ species were determined by gel electrophoresis with western blotting (gel/western blot) using an anti-Aβ antibody (6E10) and transmission electron microscopy (TEM), respectively. Two types of experiments were carried out employing two major Aβ isoforms, i.e., Aβ42 and Aβ40:[25] (i) inhibition studies to identify the effect of 1–5, 1a, 1b, 4a, and 4b on the formation of Aβ aggregates; (ii) disaggregation studies to evaluate if the flavonoids with reactivities towards Aβ aggregation in inhibition studies can disassemble preformed Aβ aggregates or modulate their further aggregation, as illustrated in Fig. 4 and S5–S9. ^† Moreover, the solutions containing the flavonoids and Cu(II) were probed by electronic absorption (Abs) spectroscopy to monitor their metal binding. […] As expected, no Abs change of 1a and 4a composed of methoxy groups on the A ring was detected by addition of Cu(II). […]
Ab Aggregation Experiments. Ab was dissolved in ammonium hydroxide [1% w/w NH4OH (aq)] and the resulting solution was aliquoted, lyophilized overnight, and stored at –80 °C. A stock solution of Ab was then prepared by dissolving the lyophilized peptide with NH4OH (1% w/w, aq; 10 µL) and diluting with ddH2O. All Ab samples were prepared following previously reported procedures.21,22 The concentration of the peptide solution was determined by measuring its […]
solution (20 mM HEPES, pH 7.4, 150 mM NaCl) was used for preparing Ab samples. For the inhibition studies, flavonoids (final concentration, 50 µM; 1% v/v DMSO) were added to the samples of Ab (25 µM) in the absence and presence of CuCl2 or ZnCl2 (25 µM) followed by incubation for 24 h at 37 °C with constant agitation. For the disaggregation studies, Ab (25 µM) was incubated with and without CuCl2 or ZnCl2 (25 µM) for 24 h at 37 °C with constant agitation to generate preformed Ab aggregates. The resultant Ab aggregates were then treated with flavonoids (50 µM) and incubated for additional 24 h with constant agitation. For the additional disaggregation experiments, preformed Ab42 aggregates (25 µM) or Ab42 seeds (10% v/v) with or without metal ions (25 µM for CuCl2 and ZnCl2) were incubated with flavonoids (50 µM) for 24 h with constant agitation. The resultant Ab aggregates were then treated with freshly prepared Ab42 […]
(25 µM) and incubated for additional 24 h with constant agitation.
Gel/Western Blot. The resultant Ab species from the aggregation experiments were analyzed by gel/Western blot using an anti-Ab antibody (6E10, Covance, Princeton, NJ, USA).21,22 Each sample (10 µL) was separated on a 10–20% tricine gel (Invitrogen). Following separation, the proteins were transferred onto nitrocellulose membranes and blocked with bovine serum albumin (BSA, 3% w/v; Sigma-Aldrich) in Tris-buffered saline (TBS) containing 0.1% v/v Tween-20 (Sigma-Aldrich) (TBS-T) for 4 h at room temperature or overnight at 4 °C. The membranes were incubated with 6E10 (1:2,000) in the solution of BSA (2% w/v in TBS-T) for 4 h at room temperature. […] A homemade ECL kit21–23 was used to visualize gel/Western blots on a ChemiDoc MP Imaging System (Bio-Rad).
TEM. Samples for TEM were prepared following previously reported methods.22,24 Glow-discharged grids (Formvar/Carbon 300-mesh; Electron Microscopy Sciences, Hatfield, PA, USA) were treated with Ab samples (25 µM; 7.5 µL) for 2 min at room temperature. Excess sample was removed using filter paper followed by washing with ddH2O (3x). Each grid incubated with uranyl […]

metal-free Aβ42 = biological target: T2, metal-free Aβ42 (Homo sapiens, UniProt P05067); experiment: CD spectroscopy of metal-free Aβ42 (BeStSel); conditions: Aβ42 100 μM; flavonoid 200 μM; 37 °C; 24 h
T2 construct: purchased Peptide Institute, Inc. (Osaka, Japan)
Description: CD Spectroscopy. Metal-free Ab42 (100 µM) was incubated with and without 5, 4b, and 6 (200 µM) for 24 h in 20 mM HEPES, pH 7.4, 150 mM NaF at 37 °C with constant agitation (250 rpm).
CD spectra were collected in the range from 195 nm to 255 nm. The digital integration time, the bandwidth, and the scanning speed were 4 s, 2 nm, and 20 nm/min, respectively. Each spectrum was smoothed by Fourier transforms. The change in the secondary structure of metal-free Ab42 […]
treated with a flavonoid was analyzed following the previously reported BeStSel method.25 The measurements were conducted in triplicate. […]
mM HEPES, pH 7.4, 150 mM NaCl) with or without Ab40 (25 µM) in the absence and presence of CuCl2 or ZnCl2 (25 µM). Abs spectra of the samples were collected for 24 h at 37 °C.
6c [3-(3,4-Dihydroxyphenyl)-5,6,7-trimethoxy-4H-chromen-4-one]. […] After 4 h, the reaction mixture was extracted in a solution of ethyl acetate (EtOAc) and saturated sodium acetate (NaOAc; 0.12 g/mL). The organic layer was collected, washed with brine, dried with sodium sulfate ([…]), filtered, and concentrated. The crude product was purified by column chromatography (SiO2; EtOAc:hexanes = 1:1) to yield 6c [Rf = 0.3; yellow powder; 650 mg, 2.0 mmol (yield = 31%)] that was used for the next step without further purification. 1H NMR [400 MHz, […]

T1 sequence (P05067 672-711 limits assumed): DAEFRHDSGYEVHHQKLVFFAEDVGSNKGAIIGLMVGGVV
T2 sequence (P05067 672-713 limits assumed): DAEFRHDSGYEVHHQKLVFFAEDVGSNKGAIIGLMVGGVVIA

Which results are given for `O=c1c(-c2ccccc2)coc2cc(O)c(O)c(O)c12` [4b, 5,6,7-trihydroxyisoflavone]?
morphology of resultant aggregates (TEM) (Aβ40; Cu(II)–Aβ40): both amorphous and fibrillary aggregates; MW distribution of resultant species (gel/western blot) (Aβ40; Cu(II)–Aβ40 and Zn(II)–Aβ40): diverse MW distribution; morphology of resultant aggregates (TEM) (Aβ40; Zn(II)–Aβ40): a bunch of fibrillary species with chopped filamentous aggregates; MW distribution of resultant species (gel/western blot) (Aβ40; metal-free Aβ40): reduced; morphology of resultant aggregates (TEM) (Aβ40; metal-free Aβ40): shorter and thinner fibrils; Random Coils (%) of metal-free Aβ42 (metal-free Aβ42): 53.8% and 53.8 (±5.9) %; Turn (%) of metal-free Aβ42 (metal-free Aβ42): 10.3%; α-Helix (%) of metal-free Aβ42 (metal-free Aβ42): 0.4%; β-Sheet (%) of metal-free Aβ42 (metal-free Aβ42): 35.5% and 35.5 (±5.7) %

How did the “morphology of resultant aggregates (TEM)” value (Aβ40; Cu(II)–Aβ40) turn out when `O=c1cc(-c2ccccc2)oc2ccc(O)c(O)c12` [compound 3, 5,6-dihydroxyflavone] was run?
Its value is “both amorphous and fibrillary aggregates”.

Which “morphology of resultant aggregates (TEM)” value (Aβ40; Cu(II)–Aβ40) does the source give for `O=c1cc(-c2ccccc2)oc2cc(O)c(O)c(O)c12` [compound 4, baicalein] here?
The value was “both amorphous and fibrillary aggregates”.

And the “MW distribution of resultant species (gel/western blot)” value (Aβ40; metal-free Aβ40)?
Its value is “reduced”.

And the “morphology of resultant aggregates (TEM)” value (Aβ40; metal-free Aβ40)?
Its value is “shorter and thinner fibrils”.

Which “morphology of resultant aggregates (TEM)” value (Aβ40; Cu(II)–Aβ40) does the source give for `O=c1cc(-c2ccccc2)oc2c(Cl)c(O)c(O)c(O)c12` [compound 5, 8-chlorobaicalein] here?
The value was “chopped filamentous Cu(II)–Aβ40 aggregates”.

And the “MW distribution of resultant species (gel/western blot)” value (Aβ40; metal-free Aβ40)?
The value was “increased the band intensity”.

What about the “morphology of resultant aggregates (TEM)” value (Aβ40; metal-free Aβ40) of the same compound?
The value was “shorter and thinner fibrils”.

And the “Random Coils (%) of metal-free Aβ42” value (metal-free Aβ42)?
The value was 19.7% and 19.7 (±15.5) %.

And the “Turn (%) of metal-free Aβ42” value (metal-free Aβ42)?
Its value is 12.5%.

And the “α-Helix (%) of metal-free Aβ42” value (metal-free Aβ42)?
The value was 1.2%.

What about the “β-Sheet (%) of metal-free Aβ42” value (metal-free Aβ42) of the same compound?
The value was 66.7% and 66.7 (±15.3) %.

What does the source list for `O=c1c(-c2ccc(O)c(O)c2)coc2cc(O)c(O)c(O)c12` [compound 6, 3-(3,4-dihydroxyphenyl)-5,6,7-trihydroxy-4H-chromen-4-one]?
Random Coils (%) of metal-free Aβ42 (metal-free Aβ42): 13.6%; Turn (%) of metal-free Aβ42 (metal-free Aβ42): 38.1%; α-Helix (%) of metal-free Aβ42 (metal-free Aβ42): 1.5%; β-Sheet (%) of metal-free Aβ42 (metal-free Aβ42): 46.7%
